Several values for one entry are separate records, joined by “and”; a condition that tells them apart may be missing. Equal values may be shown once.
Legend:
Tdp1 = target: T1, Tdp1 (Homo sapiens, UniProt Q9NUW8); assay: Tdp1 inhibition, fluorescent oligonucleotide biosensor; format: biochemical; settings: purified Tdp1 1.5 nM, 50 nM biosensor; read-out: Concentration of half-maximal inhibition of Tdp1 (IC50)
T1 construct: Purified Tdp1 (1.5 nM) triggered the reaction
From the text: The inhibitory properties of the compound on the purified Tdp1 was studied using a technique developed previously by our team. A 16-mer single-stranded oligonucleotide carrying a fluorophore at the 5′-end and a quencher at the 3′-end was used as a biosensor. When within the Förster radius, the quencher suppressed the fluorescence of the fluorophore. The quencher was removed by Tdp1, resulting in fluorescence emission. Usnic acid derivatives with a bromophenol residue in the enamine fragment (compounds 6 and 8) inhibit the enzyme with half-maximal inhibition concentrations (IC50) an order of magnitude worse than derivatives with a di-tert-butyl fragment (compounds 5 and 7).
An oligonucleotide 5′-[FAM] AAC GTC AGGGTC TTC C [BHQ1]-3′ synthesized in the laboratory Laboratory of Nucleic Acids Chemistry at the Institute of Chemical Biology and Fundamental Medicine (Novosibirsk, Russia) was used as a biosensor. Removal of the quencher (BHQ1) due to enzyme activity leads to increased fluorescence of FAM. The reaction was carried out at different concentrations of inhibitors (1.5% of DMSO, Sigma, St. Louis, MO, USA, in the control samples). The reaction mixtures contained Tdp1 buffer (50 mM Tris-HCl pH 8.0, 50 mM NaCl, and 7 mM β-mercaptoethanol), 50 nM biosensor, and an inhibitor being tested. Purified Tdp1 (1.5 nM) triggered the reaction.
The fluorescence was measured using POLARstar OPTIMA fluorimeter (BMG LABTECH, GmbH, Ortenberg, Germany). The values of IC50 were determined in minimum three independent experiments and were calculated using embedded software MARS Data Analysis 2.0 (BMG LABTECH, GmbH, Ortenberg, Germany).

[1] = Toxic effect in mice with LLC (body weight, liver and spleen indices)
From the text: We also studied the effect of topotecan, compound 7, and their combinations on changes in body weight of mice with LLC from days 1 to 18 after tumor transplantation and of mice with Krebs-2 carcinoma from days 1 to 8.
In addition, at the end of the experiments, we removed and weighed the liver and spleen, and calculated the liver and spleen indices.
The toxic effects of the substances were inferred from the changes in body weight during the experiment (the mice with LLC were weighed on days 1, 3, 5, 7, 10, 12, 14, 16, and 18 after grafting) and the liver and spleen weight indices at the end of the experiment.

[2] = tested on: Lewis lung carcinoma (LLC); assay: Antitumor and antimetastatic effect in the Lewis lung carcinoma model; format: in vivo, mice; settings: for average number of metastases in the lungs / average primary node (tumor) weight / tumor growth inhibition (TGI): C57BL mice with LLC; for average number of metastases in the lungs / average primary node (tumor) weight: day 18, mean ± SD; for average primary node (tumor) weight: single dose; for tumor growth inhibition (TGI): vs intact control; for number of metastases in the lungs / tumor weight: individual animals; for effect on the number of metastases in the lungs (in words): monotherapy, Tpc 1 mg/kg i/p, 7 50 mg/kg i/p or i/g
From the text: Compound 7 is a hybrid of two compounds: leaders in their subclasses of usnic acid derivatives 1 and 4 [28, 32]. We studied the ability of compound 7 to sensitize the effect of topotecan on murine Lewis lung carcinoma (LLC) (Tpc + 7, Figure 3). The LLC cell line was maintained as a transplantable strain in mice and was provided by the cell depository of the Institute of Cytology and Genetics SB RAS (Novosibirsk, Russia). […] Subcutaneous transplantation leads to the development of a primary node at the injection site and the appearance of metastases in the lungs on days 17–21 [47]. The size of the primary tumor was determined as the difference in the weight of the healthy limb and the limb with the tumor after the mice were removed from the experiment on 18th day after LLC transplantation.
Female C57BL mice with a body weight of ~19–21 g were used in the study. Mice were housed in plastic cages with a wood chip bedding and had free access to water and food. Lewis lung carcinoma (LLC) and Krebs-2 ascites were used as experimental tumor models. The transplantable tumors were obtained from the cell bank of the Institute of Cytology and Genetics (Novosibirsk, Russia). The LLC mouse model is the most common model of lung cancer; LLC cells remain tumorigenic and capable of metastasis into the lung in C57BL mice. Tumor tissue was minced and resuspended in 0.9% NaCl prior to grafting. LLC was injected into the right thigh of mice at 800,000 cells in 0.2 mL per mouse.
Previously, we divided the animals into 6 groups of 6–7 individuals in each, the treatment was carried out once 7 days after tumor transplantation: • - Group 1—Intact control—mice of this group were inoculated with a tumor, receiving 0.2 mL of saline intraperitoneally; • - Group 2—DMSO-Tween-80—mice were injected once intragastrically with a probe 200 μL of a solution containing saline, Tween-80 (10%) and DMSO (15%), a solvent for 7; • - Group 3—Tpc (aqueous solution)—mice were injected once intraperitoneally with 200 µL of Tpc at a single dose of 1 mg/kg; • - Group 4—Tpc + 7 i/g—mice received Tpc once as described for group 3 and 7 in the form of 200 µL of suspension (Tween-80 (10%) and DMSO (15%) in saline) once intragastrically at a dose of 50 mg/kg; • - Group 5—7 i/g—mice were injected with 7 as described for group 4; • - Group 6—Tpc + 7 i/p—mice were injected with topotecan once as described for groups 3 and 7 in the form of 200 µL of suspension (Tween-80 (10%) and DMSO (15%) in saline) once intraperitoneally at a dose of 50 mg/kg; • - Group 7—7 i/p—mice were injected with 7 as for group 6.
The substances were administered as a single injection in a volume of 0.2 mL on day 13 after tumor grafting. The anticancer effect was evaluated by the primary tumor growth and the number of metastases in the lungs of all mice. Metastases were counted after fixation in 10% formalin under an MBI-3 microscope (LOMO, Saint Petersburg, Soviet Union) at a threefold magnification.

[3] = Tpc 1 mg/kg i/p and/or 7 50 mg/kg i/p
[4] = 7 50 mg/kg i/g, alone or with Tpc 1 mg/kg i/p
[5] = mice with LLC, 7 50 mg/kg i/g, alone or with Tpc 1 mg/kg i/p
[6] = mice with LLC, Tpc 1 mg/kg i/p and/or 7 50 mg/kg i/p

T1 sequence (Q9NUW8 whole entry): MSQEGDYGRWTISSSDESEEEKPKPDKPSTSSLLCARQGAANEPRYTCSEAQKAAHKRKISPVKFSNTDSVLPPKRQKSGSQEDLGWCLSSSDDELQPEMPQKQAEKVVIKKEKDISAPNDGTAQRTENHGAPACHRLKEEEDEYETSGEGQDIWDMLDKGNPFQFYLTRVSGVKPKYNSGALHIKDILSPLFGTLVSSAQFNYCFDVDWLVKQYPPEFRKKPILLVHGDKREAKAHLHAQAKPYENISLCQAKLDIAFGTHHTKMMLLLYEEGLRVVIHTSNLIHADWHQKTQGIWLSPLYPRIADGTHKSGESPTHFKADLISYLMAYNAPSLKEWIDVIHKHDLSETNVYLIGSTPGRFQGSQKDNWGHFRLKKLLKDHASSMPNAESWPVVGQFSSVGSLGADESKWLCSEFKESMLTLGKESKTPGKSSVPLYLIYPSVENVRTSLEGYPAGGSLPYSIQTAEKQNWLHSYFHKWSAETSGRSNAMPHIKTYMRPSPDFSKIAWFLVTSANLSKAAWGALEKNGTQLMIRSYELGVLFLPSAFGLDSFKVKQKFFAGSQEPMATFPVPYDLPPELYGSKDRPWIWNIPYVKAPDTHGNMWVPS

With `C/C(NCCCc1cc(C(C)(C)C)c(O)c(C(C)(C)C)c1)=C1\C(=O)C=C2Oc3c(-c4csc(N/N=C/c5ccc(Br)cc5)n4)c(O)c(C)c(O)c3[C@@]2(C)C1=O` [Compound 7, (4E)-10-{2-[(E)-2-[(4-bromophenyl)methylidene]hydrazin-1-yl]-1,3-thiazole-4-yl}-4-(1-{[3-(3,5-di-tret-butyl-4-hydroxyhenyl)propyl]amino}ethylidene)-11,13-dihydroxy-2,12-dimethyl-8-oxatricyclo [7.4.0.02,7]trideca-1(13),6,9,11-tetraen-3,5-dione] the IC50 (Tdp1) was 120 ± 10 nM, the “changes in body weight of mice (in words)” value ([1]; mouse, in vivo) was “tendency towards an increase in the weight of animals” and the “organ index, Spleen (group mean)” value ([1]; mouse, in vivo) was 1.3±0.2%. For the same molecule, the “tolerability / acute toxic effect (in words)” value ([1]; mouse, in vivo) was “well tolerated and did not cause acute toxic effect”, the “average number of metastases in the lungs” value [2, 3] was 15,5±5,5 and the “average primary node (tumor) weight” value [2, 4] was 4,2±0,9 g. The “average primary node (tumor) weight” value [2, 3] was 3,9±0,7 g, the “tumor growth inhibition (TGI)” value [2, 4] was 4.5% and the “tumor growth inhibition (TGI)” value [2, 3] was 11.4%. The “number of metastases in the lungs” value [2, 5] was 18 and 4 and 21 and 0, the tumor weight [2, 5] was 2.9 g and 4.5 g and 4.8 g and 3.7 g and 5.3 g and the “number of metastases in the lungs” value [2, 6] was 10 and 21. For the same molecule, the tumor weight [2, 6] was 3.4 g and 4.4 g, the “effect on the growth of the primary node (in words)” value ([2]; mice with LLC, mono mode) was “no effect” and the “effect on the number of metastases in the lungs (in words)” value ([2]; mice with LLC) was “no effect”.

For `CC[C@@]1(O)C(=O)OCc2c1cc1n(c2=O)Cc2cc3c(CN(C)C)c(O)ccc3nc2-1` [Tpc, topotecan], the “tolerability / acute toxic effect (in words)” value ([1]; mice with LLC and mice with Krebs-2 carcinoma) was “well tolerated and did not cause acute toxic effect”, the “changes in body weight of mice (in words)” value ([1]; mouse, in vivo) was “tendency towards an increase in the weight of animals” and the “organ index, Liver (group mean)” value ([1]; mouse, in vivo) was 5.6±0.7%. For the same molecule, the “organ index, Spleen (group mean)” value ([1]; mouse, in vivo) was 1.19±0.04%, the “average number of metastases in the lungs” value [2, 3] was 11,8±6,1 and the “average primary node (tumor) weight” value [2, 3] was 2,8±0,5 g. The “tumor growth inhibition (TGI)” value [2, 3] was 36.4%, the “number of metastases in the lungs” value [2, 6] was 24 and 9 and 5 and the tumor weight [2, 6] was 2.9 g and 3 g and 3.4 g and 2.7 g. For the same molecule, the “effect on the number of metastases in the lungs (in words)” value ([2]; mice with LLC) was “virtually no effect”.
